Reference: patent US7943603B2, “Medical uses of a selective estrogen receptor modulator in combination with sex steroid precursors” (Endorecherche, Inc., priority 1998, dated 2011)

How the values were obtained:
[1] = system: ovariectomized rats; details: treatment with 5-diol
[2] = Example 5 table: serum, urinary and GnRH mRNA parameters in OVX groups; format: in vivo; details: doses not given; for LH: LD: Limit of Detection: 0.01 ng/ml
[3] = target: T1, estrogen receptor (Homo sapiens, UniProt P03372); experiment: Testing of antiestrogens for function as SERM
T1 sequence (P03372 1-595): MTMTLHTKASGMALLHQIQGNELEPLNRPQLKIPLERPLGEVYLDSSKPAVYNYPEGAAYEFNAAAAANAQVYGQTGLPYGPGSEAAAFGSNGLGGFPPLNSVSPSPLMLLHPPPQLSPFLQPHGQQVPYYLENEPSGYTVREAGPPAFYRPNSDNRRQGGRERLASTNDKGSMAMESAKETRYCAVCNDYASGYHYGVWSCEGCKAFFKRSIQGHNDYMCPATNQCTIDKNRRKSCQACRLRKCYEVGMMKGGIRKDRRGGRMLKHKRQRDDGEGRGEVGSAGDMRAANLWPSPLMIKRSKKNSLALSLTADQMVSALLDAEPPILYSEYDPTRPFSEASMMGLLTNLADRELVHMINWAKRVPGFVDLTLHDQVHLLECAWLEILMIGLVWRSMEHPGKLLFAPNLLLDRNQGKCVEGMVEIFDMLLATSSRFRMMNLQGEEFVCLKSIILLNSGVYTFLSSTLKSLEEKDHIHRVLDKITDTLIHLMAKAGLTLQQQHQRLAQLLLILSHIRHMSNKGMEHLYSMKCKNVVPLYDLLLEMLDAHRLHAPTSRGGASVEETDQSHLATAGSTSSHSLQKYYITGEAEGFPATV

[4] = Solid state stability; format: physicochemical
[5] = system: human ZR-75-1 breast tumor xenografts; experiment: Growth of human ZR-75-1 breast tumor xenografts in OVX nude mice supplemented with estrone; details: E1 0.5 μg s.c. daily alone, OVX nude mice, 9.5 months
[6] = system: postmenopausal women; details: cited from earlier work

C[C@]12CC[C@H]3[C@@H](CC=C4C[C@@H](O)CC[C@@]43C)[C@@H]1CC[C@@H]2O [5-diol, androst-5-ene-3β,17β-diol]
serum alkaline phosphatase activity [1]: marked stimulation

C[C@]12CCC(=O)C[C@@H]1CC[C@@H]1[C@@H]2CC[C@]2(C)[C@@H](O)CC[C@@H]12 [DHT]
Cholesterol [2]: 2.44 ± 0.16 mmol/L
GnRH mRNA levels silver grains per cell [2]: 38.8 ± 0.7 silver grains per cell
Serum Alkaline phosphatase [2]: 56 ± 5 IU/L
Triglycerides [2]: 0.9 ± 0.1 mmol/L
Urinary OH-proline/creatinin [2]: 7.8 ± 0.7 μmol/mmol
LH [2]: 1.55 ± 0.27 ng/mL

CC/C(=C(/c1ccc(OCCN(C)C)cc1)c1cccc(O)c1)c1ccccc1 [Droloxifene]
function as SERM [3]: found to function as SERMs

C[C@]12CC[C@@H]3c4ccc(O)cc4CC[C@H]3[C@@H]1CC[C@@H]2O [E2, 17β-estradiol]
Cholesterol [2]: 2.02 ± 0.15 mmol/L
GnRH mRNA levels silver grains per cell [2]: 40.4 ± 0.8 silver grains per cell
Serum Alkaline phosphatase [2]: 41 ± 5 IU/L
Triglycerides [2]: 0.8 ± 0.1 mmol/L
Urinary OH-proline/creatinin [2]: 9.2 ± 0.9 μmol/mmol
LH [2]: 2.37 ± 0.45 ng/mL

CC1=C(c2ccc(O)cc2)[C@H](c2ccc(OCCN3CCCCC3)cc2)Oc2cc(O)ccc21.Cl [EM-01538, (S)-(+)-7-hydroxy-3-(4′-hydroxyphenyl)-4-methyl-2-(4″-(2′″-piperidinoethoxy)phenyl)-2H-1-benzopyran hydrochloride]
solid state stability [4]: good solid state stability

C[C@]12CC[C@@H]3c4ccc(O)cc4C[C@@H](CCCCCCCCC[S+]([O-])CCCC(F)(F)C(F)(F)F)[C@H]3[C@@H]1CC[C@@H]2O (stereo partly shown) [ICI 182,780]
function as SERM [3]: found not to function as SERMs

CC(=O)O[C@]1(C(C)=O)CC[C@H]2[C@@H]3C[C@H](C)C4=CC(=O)CC[C@]4(C)[C@H]3CC[C@@]21C [MPA]
Cholesterol [2]: 2.55 ± 0.14 mmol/L
GnRH mRNA levels silver grains per cell [2]: 35.5 ± 0.7 silver grains per cell
Serum Alkaline phosphatase [2]: 57 ± 4 IU/L
Triglycerides [2]: 1.3 ± 0.1 mmol/L
Urinary OH-proline/creatinin [2]: 11.7 ± 1.2 μmol/mmol
LH [2]: 2.51 ± 0.20 ng/mL

C[C@]12CC[C@@H]3c4ccc(O)cc4CC[C@H]3[C@@H]1CCC2=O [estrone]
Complete response, (%) [5]: 0%
Complete response, number [5]: 0 (0)
Partial response, (%) [5]: 0 (0) %
Partial response, number [5]: 0 (0)
Progression, number [5]: 14
Stable response, (%) [5]: 12.5%
Stable response, number [5]: 2
Complete response, (%) ([5]; listed as E1): 0 (0) %

C[C@]12CC[C@H]3[C@@H](CCC4=CC(=O)CC[C@@H]43)[C@@H]1CC[C@@H]2O [nandrolone]
patients with androgenic side-effects [6]: 50%
